Columns and labels:
[1] = Clinical study: adverse effects and safety testing; type: in vivo, human
Method: The goal of this study was to test the safety and efficacy of an EPA-enriched oil (as described in Examples 1-3; E.I. duPont de Nemours & Co., Inc. Applied Biosciences, Wilmington, Del.), to corroborate the safety of a novel oil rich in EPA in humans prior to this product being placed on the market as a dietary supplement. This oil was tested at doses of 600 mg and 1800 mg of EPA/day as compared to olive oil placebo and a comparator omega-3 oil providing 600 mg of DHA/day over a 6 week period in a parallel arm design in approximately 120 healthy adults studied in both the fasting and post-prandial state. Safety was monitored by assessing for adverse reactions, measuring vital signs and a variety of laboratory tests including a complete metabolic profile, thyroid function tests, complete blood count, and prothrombin time.
Standard chemistry tests were carried at all visits (screening, enrollment, and final study visit after an overnight fast by Quest Laboratories, Cambridge, Mass.): blood urea nitrogen, creatinine, calculated glomerular filtration rate, sodium, potassium, chloride, carbon dioxide, calcium, total protein, albumin, globulin, total bilirubin, alkaline phosphatase, liver transaminases AST and ALT, and glucose. A complete blood count was also performed at all visits and included: hemoglobin, hematocrit, red blood cell count, platelet count, white blood cell count and a white blood cell count differential. Additional tests included: prothrombin time, and measurement of thyroid function including T3, T4 and T3 uptake. […]
At visit 2, subjects were again asked to fast for 12 hours, and information about subject characteristics including all vital signs, recent illness or hospitalization, medication and supplement use, and diet information was again obtained. […] Compliance and adverse events were assessed by telephone at weeks 1 and 3 by telephone and at week 6 by questionnaire and capsule count. […] Compliance was calculated as a percentage of consumed capsule count/expected capsule count based on the number of days the subject was in the study. […]

[2] = doses of approximately 1200 mg/day; cited from earlier work

| Compound | fishy odor with belching occasionally experienced (share of subjects) ([1]; EPA 600 mg group) | fishy odor with belching occasionally experienced (share of subjects) ([1]; EPA 1800 mg group) | fishy odor with belching occasionally experienced (share of subjects) ([1]; DHA 600 mg group) | lowering of triglyceride levels [2] |
| --- | --- | --- | --- | --- |
| CCC=CCC=CCC=CCC=CC/C=C\CCCC(=O)O [EPA, cis-5,8, 11, 14, 17-eicosapentaenoic acid] | 15% | 28% |  |  |
| CCC=CCC=CCC=CCC=CCC=CC/C=C\CCC(=O)O [DHA, cis-4,7, 10, 13, 16, 19-docosahexaenoic acid, reference compound] |  |  | 39% | about 25% |
